Results: patent publication US20240270762A1, “PENICILLIN-BINDING PROTEIN INHIBITORS” (priority 2021, published 2024)
Values after ≈ are worked out from the molar mass of the structure shown. Where two headings read alike, the source gives them in different places.

What was measured:
[1] = target: T1, PBP3 from Pseudomonas aeruginosa (PAO1) (Pseudomonas aeruginosa, UniProt G3XD46); assay: Bocillin-FL fluorescence polarization competition binding, P. aeruginosa PBP3; settings: Binding affinity to P. aeruginosa PBP3; fluorescence polarization competition binding assay using Bocillin-FL; read-out: P. aeruginosa PBP3 Potency
T1 construct: made in house
T1 sequence (G3XD46 whole entry): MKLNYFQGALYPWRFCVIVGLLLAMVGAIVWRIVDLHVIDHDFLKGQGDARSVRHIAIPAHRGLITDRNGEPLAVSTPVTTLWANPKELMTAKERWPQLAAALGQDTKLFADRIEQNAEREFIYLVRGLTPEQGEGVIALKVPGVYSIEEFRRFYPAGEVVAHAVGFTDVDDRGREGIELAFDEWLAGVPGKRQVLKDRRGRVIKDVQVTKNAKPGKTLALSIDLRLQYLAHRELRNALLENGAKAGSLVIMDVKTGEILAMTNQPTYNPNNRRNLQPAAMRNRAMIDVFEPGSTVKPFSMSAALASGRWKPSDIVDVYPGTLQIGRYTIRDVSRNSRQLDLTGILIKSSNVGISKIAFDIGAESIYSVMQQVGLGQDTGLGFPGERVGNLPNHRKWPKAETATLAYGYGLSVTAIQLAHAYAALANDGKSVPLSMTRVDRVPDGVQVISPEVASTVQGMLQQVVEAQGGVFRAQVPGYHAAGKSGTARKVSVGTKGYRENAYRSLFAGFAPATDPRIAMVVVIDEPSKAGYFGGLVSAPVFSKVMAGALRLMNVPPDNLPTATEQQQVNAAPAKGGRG
Summary of the method: (§1)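 Purified PBP was preincubated with inhibitor (E. coli PBP3 1.5 μM, 30 min; P. aeruginosa PBP3 0.75 μM, A. baumannii PBP3 0.2 μM and PBP1a 1 μM, 15 min), then Bocillin-FL (0.1 μM; 0.05 μM for PBP1a) added and FP read up to 60 min. EC50 = 50% loss of bound probe.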

[2] = target: T2, PBP3 from Acinetobacter baumannii (ATCC 19606) (Acinetobacter baumannii, UniProt A0ABX6CK25); assay: Bocillin-FL fluorescence polarization competition binding, A. baumannii PBP3; settings: fluorescence polarization competition binding assay using Bocillin-FL; read-out: A. baumannii PBP3 Potency
T2 sequence (A0ABX6CK25 64-610): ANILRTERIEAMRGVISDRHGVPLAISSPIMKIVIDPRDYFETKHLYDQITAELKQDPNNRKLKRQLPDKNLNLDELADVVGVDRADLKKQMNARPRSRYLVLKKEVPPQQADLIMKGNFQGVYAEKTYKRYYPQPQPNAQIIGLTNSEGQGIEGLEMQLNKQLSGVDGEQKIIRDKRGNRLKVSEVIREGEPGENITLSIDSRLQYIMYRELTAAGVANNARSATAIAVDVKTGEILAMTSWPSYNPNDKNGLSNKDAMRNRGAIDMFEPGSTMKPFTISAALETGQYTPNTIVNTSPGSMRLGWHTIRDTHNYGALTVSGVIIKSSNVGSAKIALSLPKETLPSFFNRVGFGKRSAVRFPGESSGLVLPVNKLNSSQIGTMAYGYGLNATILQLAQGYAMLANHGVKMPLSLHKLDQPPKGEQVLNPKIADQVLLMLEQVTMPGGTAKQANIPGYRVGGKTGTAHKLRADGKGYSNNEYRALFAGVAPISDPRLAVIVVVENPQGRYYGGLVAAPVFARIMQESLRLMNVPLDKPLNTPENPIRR
Summary of the method: as §1

[3] = target: A. baumannii PBP2 (Acinetobacter baumannii, UniProt D0C8Z9); assay: Bocillin-FL competition binding via gel filtration, A. baumannii PBP2
Chain of A. baumannii PBP2 (D0C8Z9 whole entry): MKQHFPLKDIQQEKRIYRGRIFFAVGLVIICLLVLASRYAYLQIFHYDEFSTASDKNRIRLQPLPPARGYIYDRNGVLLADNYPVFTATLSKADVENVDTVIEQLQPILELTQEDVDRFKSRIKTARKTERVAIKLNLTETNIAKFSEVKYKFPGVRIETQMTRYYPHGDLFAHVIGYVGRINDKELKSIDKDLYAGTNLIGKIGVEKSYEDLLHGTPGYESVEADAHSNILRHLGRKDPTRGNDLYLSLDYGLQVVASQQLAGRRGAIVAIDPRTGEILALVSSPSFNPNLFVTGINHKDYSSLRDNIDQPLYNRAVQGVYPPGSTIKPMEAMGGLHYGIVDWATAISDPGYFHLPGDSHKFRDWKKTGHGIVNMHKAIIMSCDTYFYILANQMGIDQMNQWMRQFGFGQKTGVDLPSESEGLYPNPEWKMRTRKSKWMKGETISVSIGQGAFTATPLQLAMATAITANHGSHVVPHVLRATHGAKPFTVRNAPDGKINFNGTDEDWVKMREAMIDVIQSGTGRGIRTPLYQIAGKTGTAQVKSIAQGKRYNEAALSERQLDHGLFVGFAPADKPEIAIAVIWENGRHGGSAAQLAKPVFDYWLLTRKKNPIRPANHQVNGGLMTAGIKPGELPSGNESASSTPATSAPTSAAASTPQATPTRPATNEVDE
Summary of the method: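 Competitive equilibrium binding; reporter Bocillin-FL. PBP + inhibitor (titration) pre-incubated → Bocillin-FL, 15 min → gel filtration → fluorescence. EC50 from Hill fit of fraction bound vs [inhibitor].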

[4] = system: A. baumannii ATCC 19606; assay: microbe, parasite or virus in culture; format: cell-based; settings: Acinetobacter baumannii
[5] = system: P. aeruginosa (ΔmexAB-oprM); assay: Broth microdilution MIC in iron-depleted CAMHB (IDM); format: cell-based; settings: Pseudomonas aeruginosa; iron-depleted CAMHB (IDM); […]; read-out: Minimum inhibitory concentration, P. aeruginosa ΔmexAB-oprM
[6] = system: A. baumannii CDC-0036; assay: microbe, parasite or virus in culture; format: cell-based; settings: Acinetobacter baumannii
[7] = system: A. baumannii CDC-0045; assay: microbe, parasite or virus in culture; format: cell-based; settings: Acinetobacter baumannii
[8] = system: P. aeruginosa CDC-0110; assay: microbe, parasite or virus in culture; format: cell-based; settings: Pseudomonas aeruginosa, CDC0110, read-out: Minimum inhibitory concentration, P. aeruginosa CDC-0110
[9] = ATCC19606, read-out: MIC, A. baumannii ATCC 19606
[10] = CDC0036, read-out: MIC, A. baumannii CDC-0036
[11] = CDC0045, read-out: MIC, A. baumannii CDC-0045
[12] = ATCC19606, read-out: Minimum inhibitory concentration (MIC), A. baumannii ATCC 19606
[13] = CDC0036, read-out: Minimum inhibitory concentration (MIC), A. baumannii CDC-0036
[14] = CDC0045, read-out: Minimum inhibitory concentration (MIC), A. baumannii CDC-0045

O=C(NCCS(=O)(=O)N1CCN(C(=O)N[C@H](C(=O)N[C@H]2Cc3ccc(F)c(C(=O)O)c3OB2O)c2ccc(P(=O)(O)O)cc2)C1=O)c1ccc(O)c(O)c1Cl [Example 167, (R)-3-((S)-2-(3-((2-(2-chloro-3,4-dihydroxybenzamido)ethyl)sulfonyl)-2-oxoimidazolidine-1-carboxamido)-2-(4-phosphonophenyl)acetamido)-7-fluoro-2-hydroxy-3,4-dihydro-2H-benzo[e][1,2]oxaborinine-8-carboxylic acid]
IC50 [1]: 50 to 250 µM | IC50 [2]: 10 to 50 µM | EC50 [3]: 10 to 50 µM | MIC [4, 9]: > 128 µg/mL | MIC [5]: > 128 µg/mL | MIC [6, 10]: > 128 µg/mL | MIC [7, 11]: > 128 µg/mL | MIC [8]: > 128 µg/mL

O=C(O)c1c(F)ccc2c1OB(O)[C@@H](NC(=O)[C@H](NC(=O)N1CCN(Cc3ccc(O)c(O)c3Cl)C(=O)C1=O)c1cccc(P(=O)(O)O)c1)C2 (single isomer, unassigned) [Example 163]
IC50 [1]: < 10 µM | IC50 [2]: < 10 µM | EC50 [3]: 10 to 50 µM | MIC [4, 9]: < 1 µg/mL | MIC [5]: < 1 µg/mL | MIC [6, 10]: < 1 µg/mL | MIC [7, 11]: < 1 µg/mL | MIC [8]: < 1 µg/mL

O=C(O)c1c(F)ccc2c1OB(O)[C@@H](NC(=O)C(NC(=O)N1CCN(C3CCN(S(=O)(=O)Cc4cccc(O)c4)CC3)C(=O)C1=O)c1cc(F)c(O)c(O)c1Cl)C2 (stereo partly drawn) [Example 485, (3R)-3-(2-(2-chloro-5-fluoro-3,4-dihydroxyphenyl)-2-(4-(1-((3-hydroxybenzyl)sulfonyl)piperidin-4-yl)-2,3-dioxopiperazine-1-carboxamido)acetamido)-7-fluoro-2-hydroxy-3,4-dihydro-2H-benzo[e][1,2]oxaborinine-8-carboxylic acid]
IC50 [1]: < 10 µM | IC50 [2]: < 10 µM | EC50 [3]: < 10 µM | MIC [4, 9]: < 1 µg/mL | MIC [5]: < 1 µg/mL | MIC [6, 10]: < 1 µg/mL | MIC [7, 11]: < 1 µg/mL | MIC [8]: < 1 µg/mL

O=C(O)c1c(F)ccc2c1OB(O)[C@@H](NC(=O)[C@H](NC(=O)N1CCN(C3CCN(C(=O)c4cccc(O)c4F)CC3)C1=O)c1cc(F)c(O)c(O)c1Cl)C2 (single isomer, unassigned) [Example 431]
IC50 [1]: < 10 µM | IC50 [2]: < 10 µM | EC50 [3]: < 10 µM | MIC [4, 9]: < 1 µg/mL | MIC [5]: < 1 µg/mL | MIC [6, 10]: < 1 µg/mL | MIC [7, 11]: < 1 µg/mL | MIC [8]: < 1 µg/mL

O=C(O)c1c(F)ccc2c1OB(O)[C@@H](NC(=O)[C@H](NC(=O)N1CCN(C3CCN(C(=O)c4ccc(O)cc4)CC3)C1=O)c1cc(F)c(O)c(O)c1Cl)C2 (single isomer, unassigned) [Example 463]
IC50 [1]: < 10 µM | IC50 [2]: < 10 µM | EC50 [3]: < 10 µM | MIC [4, 9]: < 1 µg/mL | MIC [5]: < 1 µg/mL | MIC [6, 10]: < 1 µg/mL | MIC [7, 11]: < 1 µg/mL | MIC [8]: < 1 µg/mL

O=C(O)c1c(F)ccc2c1OB(O)[C@@H](NC(=O)C(NC(=O)N1CCN(C3CCN(C(=O)Nc4cc(O)c(F)cc4Cl)CC3)C(=O)C1=O)c1cc(F)c(O)c(O)c1Cl)C2 (stereo partly drawn) [Example 490, (3R)-3-(2-(4-(1-((2-chloro-4-fluoro-5-hydroxyphenyl)carbamoyl)piperidin-4-yl)-2,3-dioxopiperazine-1-carboxamido)-2-(2-chloro-5-fluoro-3,4-dihydroxyphenyl)acetamido)-7-fluoro-2-hydroxy-3,4-dihydro-2H-benzo[e][1,2]oxaborinine-8-carboxylic acid]
IC50 [1]: < 10 µM | IC50 [2]: < 10 µM | EC50 [3]: 10 to 50 µM | MIC [4, 12]: < 1 µg/mL | MIC [5]: < 1 µg/mL | MIC [6, 13]: 2 to 4 µg/mL (≈ 2.34 to 4.69 µM) | MIC [7, 14]: < 1 µg/mL

O=C(O)c1c(F)ccc2c1OB(O)[C@@H](NC(=O)[C@H](NC(=O)N1CCN(C3CCN(Cc4ccncc4)CC3)C1=O)c1cc(F)c(O)c(O)c1Cl)C2 [Example 493, (R)-3-((R)-2-(2-chloro-5-fluoro-3,4-dihydroxyphenyl)-2-(2-oxo-3-(1-(pyridin-4-ylmethyl)piperidin-4-yl)imidazolidine-1-carboxamido)acetamido)-7-fluoro-2-hydroxy-3,4-dihydro-2H-benzo[e][1,2]oxaborinine-8-carboxylic acid]
IC50 [1]: < 10 µM | IC50 [2]: < 10 µM | EC50 [3]: 10 to 50 µM | MIC [4, 12]: < 1 µg/mL | MIC [5]: < 1 µg/mL | MIC [6, 13]: < 1 µg/mL | MIC [7, 14]: < 1 µg/mL

O=C(O)c1c(F)ccc2c1OB(O)[C@@H](NC(=O)[C@H](NC(=O)N1CCN(C3CCN(C(=O)Nc4cc(F)c(F)c(O)c4F)CC3)C(=O)C1=O)c1cc(F)c(O)c(O)c1Cl)C2 [Example 491, (R)-3-((R)-2-(2-chloro-5-fluoro-3,4-dihydroxyphenyl)-2-(2,3-dioxo-4-(1-((2,4,5-trifluoro-3-hydroxyphenyl)carbamoyl)piperidin-4-yl)piperazine-1-carboxamido)acetamido)-7-fluoro-2-hydroxy-3,4-dihydro-2H-benzo[e][1,2]oxaborinine-8-carboxylic acid]
IC50 [1]: < 10 µM | IC50 [2]: < 10 µM | EC50 [3]: < 10 µM | MIC [4, 12]: < 1 µg/mL | MIC [5]: < 1 µg/mL | MIC [6, 13]: 2 to 4 µg/mL (≈ 2.34 to 4.68 µM) | MIC [7, 14]: < 1 µg/mL

O=C(O)c1c(F)ccc2c1OB(O)[C@@H](NC(=O)[C@H](NC(=O)N1CCN(C3CCN(Cc4cccnc4)CC3)C1=O)c1cc(F)c(O)c(O)c1Cl)C2 [Example 492, (R)-3-((R)-2-(2-chloro-5-fluoro-3,4-dihydroxyphenyl)-2-(2-oxo-3-(1-(pyridin-3-ylmethyl)piperidin-4-yl)imidazolidine-1-carboxamido)acetamido)-7-fluoro-2-hydroxy-3,4-dihydro-2H-benzo[e][1,2]oxaborinine-8-carboxylic acid]
IC50 [1]: < 10 µM | IC50 [2]: < 10 µM | EC50 [3]: 10 to 50 µM | MIC [4, 12]: < 1 µg/mL | MIC [5]: < 1 µg/mL | MIC [6, 13]: 2 to 4 µg/mL (≈ 2.74 to 5.49 µM) | MIC [7, 14]: < 1 µg/mL

O=C(O)c1c(F)ccc2c1OB(O)[C@@H](NC(=O)C(NC(=O)N1CCN(C3CCN(C(=O)Nc4cc(O)c(F)c(F)c4)CC3)C(=O)C1=O)c1cc(F)c(O)c(O)c1Cl)C2 (stereo partly drawn) [Example 488, (3R)-3-(2-(2-chloro-5-fluoro-3,4-dihydroxyphenyl)-2-(4-(1-((3,4-difluoro-5-hydroxyphenyl)carbamoyl)piperidin-4-yl)-2,3-dioxopiperazine-1-carboxamido)acetamido)-7-fluoro-2-hydroxy-3,4-dihydro-2H-benzo[e][1,2]oxaborinine-8-carboxylic acid]
IC50 [1]: < 10 µM | IC50 [2]: < 10 µM | EC50 [3]: 10 to 50 µM | MIC [4, 12]: < 1 µg/mL | MIC [5]: < 1 µg/mL | MIC [6, 13]: 2 to 4 µg/mL (≈ 2.39 to 4.78 µM) | MIC [7, 14]: < 1 µg/mL

O=C(O)c1c(F)ccc2c1OB(O)[C@@H](NC(=O)C(NC(=O)N1CCN(C3CCN(C(=O)Nc4c(F)ccc(O)c4F)CC3)C(=O)C1=O)c1cc(F)c(O)c(O)c1Cl)C2 (stereo partly drawn) [Example 487, (3R)-3-(2-(2-chloro-5-fluoro-3,4-dihydroxyphenyl)-2-(4-(1-((2,6-difluoro-3-hydroxyphenyl)carbamoyl)piperidin-4-yl)-2,3-dioxopiperazine-1-carboxamido)acetamido)-7-fluoro-2-hydroxy-3,4-dihydro-2H-benzo[e][1,2]oxaborinine-8-carboxylic acid]
IC50 [1]: < 10 µM | IC50 [2]: < 10 µM | EC50 [3]: < 10 µM | MIC [4, 12]: < 1 µg/mL | MIC [5]: < 1 µg/mL | MIC [6, 13]: < 1 µg/mL | MIC [7, 14]: < 1 µg/mL
